# Measurements as given in patent US7037502B2, “Peptide with the amino acid sequence of KVLDGQDP having anti-inflammatory properties” (priority 2001, dated 2006).
# Entries after “also recorded” stand apart in the source; their conditions may differ.
# Experiments:
# [1] = system: allergic conjunctivitis to ragweed (Ambrosia trifida); test: Allergic conjunctivitis to ragweed in guinea pig: clinical scores (conjunctival edema and redness); assay type: in vivo, Hartley female guinea pig; conditions: for Statistical evaluation of clinical scores (Mann-Whitney test), P compared to No treatment group / Statistical evaluation of clinical scores (Mann-Whitney test), P compared to Dexamethasone / Statistical evaluation of clinical scores (Mann-Whitney test), P compared to Livostine: conjunctival edema and redness score 0-4+, 20 min after allergen challenge, 12 eyes per group, eye drops; for Clinical signs (conjunctival redness and edema scores), result in words: n=12, P<0.01, SD<10%, Mann-Whitney test
# Description: The peptides of the present invention were analyzed in experimental model of allergic conjunctivitis to ragweed (giant ragweed; Ambrosia trifida) in guinea pig. Hartley strain of guinea pig was selected according to previous reports of conjunctival anaphylaxis (Calonge M., et al., Acta Ophthalmol 68; 470–476, 1990) and females were chosen based on the sex dimorphism of ocular mucosal immunity with the protective role of male hormones (Saruya S., et al., Act Soc Ophthalmol Jap 72; 833–845, 1968). The conjunctival redness and edema are main signs of seasonal allergic conjunctivitis and eosionphil infiltration is the hallmark of the conjunctival histology in patients with allergic conjunctivitis (Abelson M B., et al., Arch Ophthalmol. 101; 555–556, 1983; Butrus S I., et al., Int. Ophthalmol. Clin. 28; 324–328, 1988) 86 Hartley female guinea pigs, 200–250 g were housed in the animal facilities of the Asan Institute for Life Sciences (Korea), given guinea pig chow and water ad libitum, and cared for in accordance with the Declaration of Helsinki and the National Institute of Health Guide to the Care and Use of the Laboratory Animals (Korea). […] On day 15, immunized guinea pigs were divided 14 groups, 6 for each group. 11 anti-inflammatory peptides including new recombinants, dexamethasone eye drop (Maxidex, 0.1% dexamethasone, Alcon) and anti-histamine eye drop (Livostin, levocabastine, Janssen) were used for 13 groups, and no treatment for one group. Normal controls were employed as 6 non-immunized and non-treated guinea pigs. […] All the procedures were followed experimental model of allergic conjunctivitis described by Merayo-Lloves et al (Experimental model of allergic conjunctivitis to ragweed in guinea pig. Curr. Eye Res. 14; 487–494, 1995). Anti-inflammatory peptides were resolved in sterile saline (100 μmol/40 μl concentration). All peptides and dexamethasone eye solutions were challenged 3 hour prior to the last pollen application on day 15, 10 minutes after pollen application, and 4 times thereafter at the 3 hour interval. Conjunctival edema and redness were judged in room light and under an operating microscope (Zeiss, Germany). The evaluation was performed in a masked fashion at 20 min after allergen challenge and each clinical sign was scored on a scale 0–4+ (0 absent, 1+ minimal, 2+ mild, 3+ moderate, 4+ severe), adapted for guinea pig from previous report (Merayo-Lloves et al: Experimental model of allergic conjunctivitis to ragweed in guinea pig. Curr. Eye Res. 14; 487–494, 1995). Clinical scores of each group (12 eyes in each group) were analyzed.
# [2] = system: eosinophil infiltration of conjunctiva; test: Allergic conjunctivitis to ragweed in guinea pig: histology, eosinophil count in conjunctiva; assay type: in vivo, Hartley female guinea pig; conditions: for Statistical evaluation of eosinophil count (Mann-Whitney test), P compared to Livostine / Statistical evaluation of eosinophil count (Mann-Whitney test), P compared to No treatment group / Statistical evaluation of eosinophil count (Mann-Whitney test), P compared to Dexamethasone: eosinophils in three fields of conjunctiva (×400), 12 eyes per group, eye drops
# Description: The peptides of the present invention were analyzed in experimental model of allergic conjunctivitis to ragweed (giant ragweed; Ambrosia trifida) in guinea pig. Hartley strain of guinea pig was selected according to previous reports of conjunctival anaphylaxis (Calonge M., et al., Acta Ophthalmol 68; 470–476, 1990) and females were chosen based on the sex dimorphism of ocular mucosal immunity with the protective role of male hormones (Saruya S., et al., Act Soc Ophthalmol Jap 72; 833–845, 1968). The conjunctival redness and edema are main signs of seasonal allergic conjunctivitis and eosionphil infiltration is the hallmark of the conjunctival histology in patients with allergic conjunctivitis (Abelson M B., et al., Arch Ophthalmol. 101; 555–556, 1983; Butrus S I., et al., Int. Ophthalmol. Clin. 28; 324–328, 1988)
# 86 Hartley female guinea pigs, 200–250 g were housed in the animal facilities of the Asan Institute for Life Sciences (Korea), given guinea pig chow and water ad libitum, and cared for in accordance with the Declaration of Helsinki and the National Institute of Health Guide to the Care and Use of the Laboratory Animals (Korea).
# On day 15, immunized guinea pigs were divided 14 groups, 6 for each group. 11 anti-inflammatory peptides including new recombinants, dexamethasone eye drop (Maxidex, 0.1% dexamethasone, Alcon) and anti-histamine eye drop (Livostin, levocabastine, Janssen) were used for 13 groups, and no treatment for one group. Normal controls were employed as 6 non-immunized and non-treated guinea pigs. […] All the procedures were followed experimental model of allergic conjunctivitis described by Merayo-Lloves et al (Experimental model of allergic conjunctivitis to ragweed in guinea pig. Curr. Eye Res. 14; 487–494, 1995).
# Anti-inflammatory peptides were resolved in sterile saline (100 μmol/40 μl concentration). All peptides and dexamethasone eye solutions were challenged 3 hour prior to the last pollen application on day 15, 10 minutes after pollen application, and 4 times thereafter at the 3 hour interval.
# The orbits were excentrated after the animals were killed with CO2 asphyxia, and specimens were prepared for light microscopic examination. Sectioned specimens were stained with hematoxylin-eosin.
# Eosinophils in the standardized fields of conjunctival epithelium, the immediate subepithelial, and the stroma were counted in three non-consecutive fields (magnification ×400) for each treatment in each experiment (12 eyes in each group).
# [3] = biological target: PLA2 (Sus scrofa, UniProt P00592); conditions: Miele et al., Nature 335, 726-730, 1988; cited from earlier work
# PLA2, sequence (P00592 23-146): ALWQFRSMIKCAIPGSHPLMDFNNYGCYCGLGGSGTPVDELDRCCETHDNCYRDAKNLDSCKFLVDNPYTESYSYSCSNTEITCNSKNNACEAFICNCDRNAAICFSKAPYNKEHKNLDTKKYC
compound,measurement,setting,value
"C[C@@H]1C[C@H]2[C@@H]3CCC4=CC(=O)C=C[C@]4(C)[C@@]3(F)[C@@H](O)C[C@]2(C)[C@@]1(O)C(=O)CO [Dexamethasone, dexamethasone]","Statistical evaluation of clinical scores (Mann-Whitney test), P compared to No treatment group",[1],0.000
same,"Statistical evaluation of eosinophil count (Mann-Whitney test), P compared to Livostine",[2],0.932
same,"Statistical evaluation of eosinophil count (Mann-Whitney test), P compared to No treatment group",[2],0.000
"MQMKKVLDS [Peptide A3, known peptide, antiflammin]","Statistical evaluation of clinical scores (Mann-Whitney test), P compared to Dexamethasone",[1],0.089
same,"Statistical evaluation of clinical scores (Mann-Whitney test), P compared to Livostine",[1],0.043
same,"Statistical evaluation of clinical scores (Mann-Whitney test), P compared to No treatment group",[1],0.000
same,"Clinical signs (conjunctival redness and edema scores), result in words",[1],statistically significant difference from other groups
same,"Statistical evaluation of eosinophil count (Mann-Whitney test), P compared to Dexamethasone",[2],0.000
same,"Statistical evaluation of eosinophil count (Mann-Whitney test), P compared to Livostine",[2],0.000
same,"Statistical evaluation of eosinophil count (Mann-Whitney test), P compared to No treatment group",[2],0.007
GQDP [Peptide E3],"Statistical evaluation of clinical scores (Mann-Whitney test), P compared to Dexamethasone",[1],0.000
same,"Statistical evaluation of clinical scores (Mann-Whitney test), P compared to Livostine",[1],0.002
same,"Statistical evaluation of clinical scores (Mann-Whitney test), P compared to No treatment group",[1],0.016
same,"Statistical evaluation of eosinophil count (Mann-Whitney test), P compared to Dexamethasone",[2],0.007
same,"Statistical evaluation of eosinophil count (Mann-Whitney test), P compared to Livostine",[2],0.000
same,"Statistical evaluation of eosinophil count (Mann-Whitney test), P compared to No treatment group",[2],0.001
"SHLRKVFDK [Peptide A1, known peptide, antiflammin]","Statistical evaluation of clinical scores (Mann-Whitney test), P compared to Dexamethasone",[1],0.007
same,"Statistical evaluation of clinical scores (Mann-Whitney test), P compared to Livostine",[1],0.009
same,"Statistical evaluation of clinical scores (Mann-Whitney test), P compared to No treatment group",[1],0.003
same,"Clinical signs (conjunctival redness and edema scores), result in words",[1],statistically significant difference from other groups
same,"Statistical evaluation of eosinophil count (Mann-Whitney test), P compared to Dexamethasone",[2],0.004
same,"Statistical evaluation of eosinophil count (Mann-Whitney test), P compared to Livostine",[2],0.006
same,"Statistical evaluation of eosinophil count (Mann-Whitney test), P compared to No treatment group",[2],0.000
RKLMEI (PKLMEI) [Peptide P1],"Statistical evaluation of clinical scores (Mann-Whitney test), P compared to Dexamethasone",[1],0.001
same,"Statistical evaluation of clinical scores (Mann-Whitney test), P compared to Livostine",[1],0.003
same,"Statistical evaluation of clinical scores (Mann-Whitney test), P compared to No treatment group",[1],0.009
same,"Clinical signs (conjunctival redness and edema scores), result in words",[1],statistically significant difference from other groups
same,"Statistical evaluation of eosinophil count (Mann-Whitney test), P compared to Dexamethasone",[2],0.000
same,"Statistical evaluation of eosinophil count (Mann-Whitney test), P compared to Livostine",[2],0.000
same,"Statistical evaluation of eosinophil count (Mann-Whitney test), P compared to No treatment group",[2],0.002
"DPVKG [Peptide E2, synthetic peptide of the invention]","Statistical evaluation of clinical scores (Mann-Whitney test), P compared to Dexamethasone",[1],0.050
same,"Statistical evaluation of clinical scores (Mann-Whitney test), P compared to Livostine",[1],0.039
same,"Statistical evaluation of clinical scores (Mann-Whitney test), P compared to No treatment group",[1],0.000
same,"Clinical signs (conjunctival redness and edema scores), result in words",[1],statistically significant difference from other groups
same,"Anti-inflammatory activity, overall conclusion in words","[2]; allergic conjunctivitis model in guinea pig, summary of Example 2, listed as SEQ ID NO:3",excellent anti-inflammatory activity in comparison with other known peptide sequences; also recorded: much higher activity than the steroidal anti-inflammatory dexamethasone
same,"Statistical evaluation of eosinophil count (Mann-Whitney test), P compared to Dexamethasone",[2],0.028
same,"Statistical evaluation of eosinophil count (Mann-Whitney test), P compared to Livostine",[2],0.060
same,"Statistical evaluation of eosinophil count (Mann-Whitney test), P compared to No treatment group",[2],0.000
same,"Histological signs (eosinophil infiltration), result in words","[2]; n=12, P<0.01, SD<10%, Mann-Whitney test",statistically significant difference from other groups
"KVLD [Peptide A4, core tetrapeptide of antiflammins]","Statistical evaluation of clinical scores (Mann-Whitney test), P compared to Dexamethasone",[1],0.000
same,"Statistical evaluation of clinical scores (Mann-Whitney test), P compared to Livostine",[1],0.000
same,"Statistical evaluation of clinical scores (Mann-Whitney test), P compared to No treatment group",[1],0.082
same,"Statistical evaluation of eosinophil count (Mann-Whitney test), P compared to Dexamethasone",[2],0.028
same,"Statistical evaluation of eosinophil count (Mann-Whitney test), P compared to Livostine",[2],0.045
same,"Statistical evaluation of eosinophil count (Mann-Whitney test), P compared to No treatment group",[2],0.001
same,"PLA2 inhibitor activity, in words",[3],inactive
"HDMNKVLDL [Peptide A2, known peptide, antiflammin]","Statistical evaluation of clinical scores (Mann-Whitney test), P compared to Dexamethasone",[1],0.002
same,"Statistical evaluation of clinical scores (Mann-Whitney test), P compared to Livostine",[1],0.003
same,"Statistical evaluation of clinical scores (Mann-Whitney test), P compared to No treatment group",[1],0.382
same,"Statistical evaluation of eosinophil count (Mann-Whitney test), P compared to Dexamethasone",[2],0.000
same,"Statistical evaluation of eosinophil count (Mann-Whitney test), P compared to Livostine",[2],0.000
same,"Statistical evaluation of eosinophil count (Mann-Whitney test), P compared to No treatment group",[2],0.161
PVKG [Peptide E1],"Statistical evaluation of clinical scores (Mann-Whitney test), P compared to Dexamethasone",[1],0.017
same,"Statistical evaluation of clinical scores (Mann-Whitney test), P compared to Livostine",[1],0.012
same,"Statistical evaluation of clinical scores (Mann-Whitney test), P compared to No treatment group",[1],0.001
same,"Clinical signs (conjunctival redness and edema scores), result in words",[1],statistically significant difference from other groups
same,"Statistical evaluation of eosinophil count (Mann-Whitney test), P compared to Dexamethasone",[2],0.000
same,"Statistical evaluation of eosinophil count (Mann-Whitney test), P compared to Livostine",[2],0.000
same,"Statistical evaluation of eosinophil count (Mann-Whitney test), P compared to No treatment group",[2],0.002
GTLAKKLT [Peptide P2],"Statistical evaluation of clinical scores (Mann-Whitney test), P compared to Dexamethasone",[1],0.000
same,"Statistical evaluation of clinical scores (Mann-Whitney test), P compared to Livostine",[1],0.000
same,"Statistical evaluation of clinical scores (Mann-Whitney test), P compared to No treatment group",[1],0.279
same,"Statistical evaluation of eosinophil count (Mann-Whitney test), P compared to Dexamethasone",[2],0.000
same,"Statistical evaluation of eosinophil count (Mann-Whitney test), P compared to Livostine",[2],0.000
same,"Statistical evaluation of eosinophil count (Mann-Whitney test), P compared to No treatment group",[2],0.004
